This is an account of results in ChEMBL document CHEMBL5625165, “Nine-valent oleanolic acid conjugates as potent inhibitors blocking the entry of influenza A virus” (Eur J Med Chem, 2023).

Data set [1] is described as follows: Cytotoxicity against dog MDCK cells assessed as cell viability at 30 uM incubated for 48 hrs by celltiter-glo assay. The format is toxicity, cell-based, Canis lupus familiaris. The note with it: read-out: Activity. For orientation: ATP-based viability assays read luminescence as a measure of living cells.
The subject of data set [2] is Influenza A virus. In words: Antiviral activity against influenza A virus A/WSN/33(H1N1) infected in MDCK cells assessed as inhibition of viral growth at 30 uM incubated for 48 hrs by microscopic analysis. The format is functional. More on the design: scale not given: the % may be the effect or the level left.
In data set [3] the test system is Erythrocyte. The experiment in a line: Hemolytic activity in rabbit RBC assessed as hemolysis at 300 uM incubated for 2 hr by spectrophotometry analysis. The format is toxicity, cell-based, Oryctolagus cuniculus.
Data set [4] in a line: Cytotoxicity against dog MDCK cells assessed as reduction in cell viability incubated for 48 hrs by celltiter-glo assay. The format is toxicity, cell-based, Canis lupus familiaris.
Data set [5] can be described thus: Selectivity index, ratio of CC50 for cytotoxicity against dog MDCK cells assessed as reduction in cell viability to IC50 for antiviral activity against influenza A virus A/WSN/33(H1N1) infected in MDCK cells assessed as inhibition of viral-induced cytopathic effect. The format is toxicity, cell-based. The note with it: read-out: Ratio CC50/IC50. In general terms: Damage to the host cells serves as the signal in cytopathic effect assays.

Data set [6] in a line: Selectivity index, ratio of CC50 for cytotoxicity against dog MDCK cells assessed as reduction in cell viability to IC50 for antiviral activity against influenza A virus B/Sichuan/531/2018 (Victoria) infected in MDCK cells assessed as inhibition of viral growth. The note with it: read-out: Ratio CC50/IC50. The format is toxicity, cell-based.
Data set [7] deals with Influenza A virus. The experiment in a line: Antiviral activity against influenza A virus B/Darwin/58/2019 (Yamagata) infected in MDCK cells assessed as inhibition of viral growth. The format is functional, organism-based.
Data set [8] has as its system Influenza A virus. The experiment in a line: Antiviral activity against influenza A virus B/Sichuan/531/2018 (Victoria) infected in MDCK cells assessed as inhibition of viral growth. The format is functional, organism-based.
In data set [9] the test system is Influenza A virus. In words: Antiviral activity against influenza A virus A/WSN/33(H1N1) infected in MDCK cells assessed as inhibition of viral-induced cytopathic effect incubated for 48 hrs by microscopic analysis. The format is functional, organism-based.
Data set [10] is described as follows: Selectivity index, ratio of CC50 for cytotoxicity against dog MDCK cells assessed as reduction in cell viability to IC50 for antiviral activity against influenza A virus B/Darwin/58/2019 (Yamagata) infected in MDCK cells assessed as inhibition of viral growth. The format is toxicity, cell-based. The conditions noted are these: read-out: Ratio CC50/IC50.
Data set [11] has as its system Influenza A virus. The experiment in a line: Antiviral activity against influenza A virus A/WSN/33(H1N1) infected in MDCK cells assessed as reduction in M2 expression measured upto 2 hrs by time of addition assay. The format is functional. More on the design: scale not given: the % may be the effect or the level left.
Data set [12] has as its system Erythrocyte. The experiment in a line: Inhibition of hemagglutination in chicken RBC cells infected with Influenza A virus A/WSN/33 (H1N1) assessed as reduction in virus-induced agglutination of erythrocytes at 0.24 to 15 uM incubated for 24 mins. The format is functional, cell-based. The note with it: Gallus gallus, dose 0.24-15 µM.

In general, CC50 refers to the concentration giving 50% cytotoxicity. For orientation: IC50 means the concentration that gives 50% inhibition.

SMILES strings stand for the structures. Activity calls are given as the source filed them. The rule behind the calls is not given here.

`CC1(C)CC[C@]2(C(=O)NCCOCCOCCOCCOCCn3cc(COc4cc(C(=O)NCCNC(=O)OCCn5cc(COc6cc(OCc7cn(CCOC(=O)NCCNC(=O)c8cc(OCc9cn(CCOCCOCCOCCOCCNC(=O)[C@]%10%11CCC(C)(C)C[C@H]%10C%10=CC[C@@H]%12[C@@]%13(C)CC[C@H](O)C(C)(C)[C@@H]%13CC[C@@]%12(C)[C@]%10(C)CC%11)nn9)c(OCc9cn(CCOCCOCCOCCOCCNC(=O)[C@]%10%11CCC(C)(C)C[C@H]%10C%10=CC[C@@H]%12[C@@]%13(C)CC[C@H](O)C(C)(C)[C@@H]%13CC[C@@]%12(C)[C@]%10(C)CC%11)nn9)c(OCc9cn(CCOCCOCCOCCOCCNC(=O)[C@]%10%11CCC(C)(C)C[C@H]%10C%10=CC[C@@H]%12[C@@]%13(C)CC[C@H](O)C(C)(C)[C@@H]%13CC[C@@]%12(C)[C@]%10(C)CC%11)nn9)c8)nn7)cc(OCc7cn(CCOC(=O)NCCNC(=O)c8cc(OCc9cn(CCOCCOCCOCCOCCNC(=O)[C@]%10%11CCC(C)(C)C[C@H]%10C%10=CC[C@@H]%12[C@@]%13(C)CC[C@H](O)C(C)(C)[C@@H]%13CC[C@@]%12(C)[C@]%10(C)CC%11)nn9)c(OCc9cn(CCOCCOCCOCCOCCNC(=O)[C@]%10%11CCC(C)(C)C[C@H]%10C%10=CC[C@@H]%12[C@@]%13(C)CC[C@H](O)C(C)(C)[C@@H]%13CC[C@@]%12(C)[C@]%10(C)CC%11)nn9)c(OCc9cn(CCOCCOCCOCCOCCNC(=O)[C@]%10%11CCC(C)(C)C[C@H]%10C%10=CC[C@@H]%12[C@@]%13(C)CC[C@H](O)C(C)(C)[C@@H]%13CC[C@@]%12(C)[C@]%10(C)CC%11)nn9)c8)nn7)c6)nn5)cc(OCc5cn(CCOCCOCCOCCOCCNC(=O)[C@]67CCC(C)(C)C[C@H]6C6=CC[C@@H]8[C@@]9(C)CC[C@H](O)C(C)(C)[C@@H]9CC[C@@]8(C)[C@]6(C)CC7)nn5)c4OCc4cn(CCOCCOCCOCCOCCNC(=O)[C@]56CCC(C)(C)C[C@H]5C5=CC[C@@H]7[C@@]8(C)CC[C@H](O)C(C)(C)[C@@H]8CC[C@@]7(C)[C@]5(C)CC6)nn4)nn3)CC[C@]3(C)C(=CC[C@@H]4[C@@]5(C)CC[C@H](O)C(C)(C)[C@@H]5CC[C@]43C)[C@@H]2C1`: the viability at 48 h, 30 µM in data set [1] amounted to 99.3%. The Activity in the data set on Influenza A virus [2] is 53.88%; in the data set with Erythrocyte [3], “Non-Toxic”. The CC50 at 48 h in data set [4] was more than 30 µM.

On to `O=C1c2c(O)c(=O)ccn2N([C@@H]2c3ccccc3SCc3c2ccc(F)c3F)[C@@H]2COCCN12` [BALOXAVIR], for which the selectivity ratio in data set [5] was determined as 1650; in data set [6] it was 137; in data set [10] it was 2.53. The results for the IC50 in the data set on Influenza A virus [7], with Influenza A virus [8] and in the data set on Influenza A virus [9] were 3.78 µM, 0.07 µM and 0.009 µM, respectively. Further, the CC50 at 48 h in data set [4] was found to be 9.56 µM.

As for `CC1(C)CC[C@]2(C(=O)NCCOCCn3cc(COc4cc(C(=O)NCCNC(=O)OCCn5cc(COc6cc(OCc7cn(CCOC(=O)NCCNC(=O)c8cc(OCc9cn(CCOCCNC(=O)[C@]%10%11CCC(C)(C)C[C@H]%10C%10=CC[C@@H]%12[C@@]%13(C)CC[C@H](O)C(C)(C)[C@@H]%13CC[C@@]%12(C)[C@]%10(C)CC%11)nn9)c(OCc9cn(CCOCCNC(=O)[C@]%10%11CCC(C)(C)C[C@H]%10C%10=CC[C@@H]%12[C@@]%13(C)CC[C@H](O)C(C)(C)[C@@H]%13CC[C@@]%12(C)[C@]%10(C)CC%11)nn9)c(OCc9cn(CCOCCNC(=O)[C@]%10%11CCC(C)(C)C[C@H]%10C%10=CC[C@@H]%12[C@@]%13(C)CC[C@H](O)C(C)(C)[C@@H]%13CC[C@@]%12(C)[C@]%10(C)CC%11)nn9)c8)nn7)cc(OCc7cn(CCOC(=O)NCCNC(=O)c8cc(OCc9cn(CCOCCNC(=O)[C@]%10%11CCC(C)(C)C[C@H]%10C%10=CC[C@@H]%12[C@@]%13(C)CC[C@H](O)C(C)(C)[C@@H]%13CC[C@@]%12(C)[C@]%10(C)CC%11)nn9)c(OCc9cn(CCOCCNC(=O)[C@]%10%11CCC(C)(C)C[C@H]%10C%10=CC[C@@H]%12[C@@]%13(C)CC[C@H](O)C(C)(C)[C@@H]%13CC[C@@]%12(C)[C@]%10(C)CC%11)nn9)c(OCc9cn(CCOCCNC(=O)[C@]%10%11CCC(C)(C)C[C@H]%10C%10=CC[C@@H]%12[C@@]%13(C)CC[C@H](O)C(C)(C)[C@@H]%13CC[C@@]%12(C)[C@]%10(C)CC%11)nn9)c8)nn7)c6)nn5)cc(OCc5cn(CCOCCNC(=O)[C@]67CCC(C)(C)C[C@H]6C6=CC[C@@H]8[C@@]9(C)CC[C@H](O)C(C)(C)[C@@H]9CC[C@@]8(C)[C@]6(C)CC7)nn5)c4OCc4cn(CCOCCNC(=O)[C@]56CCC(C)(C)C[C@H]5C5=CC[C@@H]7[C@@]8(C)CC[C@H](O)C(C)(C)[C@@H]8CC[C@@]7(C)[C@]5(C)CC6)nn4)nn3)CC[C@]3(C)C(=CC[C@@H]4[C@@]5(C)CC[C@H](O)C(C)(C)[C@@H]5CC[C@]43C)[C@@H]2C1`, the selectivity ratio in data set [5] is more than 3.78; in data set [6], more than 1.1; in [10], more than 3.2. The values for the Activity with Influenza A virus [11], in the data set with Influenza A virus [2] and in the data set with Erythrocyte [3] were more than 90%, 100% and “Non-Toxic”, respectively. The viability at 48 h, 30 µM in data set [1] worked out at 96.5%. Also, in the data set with Erythrocyte [12], the inhibition entry was “Active”. The IC50 with Influenza A virus [7] was found to be 9.38 µM; in the data set with Influenza A virus [8] it was 27.2 µM; in the data set on Influenza A virus [9], 7.93 µM. Further, the CC50 at 48 h in data set [4] was more than 30 µM.

In the case of `CC1(C)CC[C@]2(C(=O)NCCOCCOCCn3cc(COc4cc(C(=O)NCCNC(=O)OCCn5cc(COc6cc(OCc7cn(CCOC(=O)NCCNC(=O)c8cc(OCc9cn(CCOCCOCCNC(=O)[C@]%10%11CCC(C)(C)C[C@H]%10C%10=CC[C@@H]%12[C@@]%13(C)CC[C@H](O)C(C)(C)[C@@H]%13CC[C@@]%12(C)[C@]%10(C)CC%11)nn9)c(OCc9cn(CCOCCOCCNC(=O)[C@]%10%11CCC(C)(C)C[C@H]%10C%10=CC[C@@H]%12[C@@]%13(C)CC[C@H](O)C(C)(C)[C@@H]%13CC[C@@]%12(C)[C@]%10(C)CC%11)nn9)c(OCc9cn(CCOCCOCCNC(=O)[C@]%10%11CCC(C)(C)C[C@H]%10C%10=CC[C@@H]%12[C@@]%13(C)CC[C@H](O)C(C)(C)[C@@H]%13CC[C@@]%12(C)[C@]%10(C)CC%11)nn9)c8)nn7)cc(OCc7cn(CCOC(=O)NCCNC(=O)c8cc(OCc9cn(CCOCCOCCNC(=O)[C@]%10%11CCC(C)(C)C[C@H]%10C%10=CC[C@@H]%12[C@@]%13(C)CC[C@H](O)C(C)(C)[C@@H]%13CC[C@@]%12(C)[C@]%10(C)CC%11)nn9)c(OCc9cn(CCOCCOCCNC(=O)[C@]%10%11CCC(C)(C)C[C@H]%10C%10=CC[C@@H]%12[C@@]%13(C)CC[C@H](O)C(C)(C)[C@@H]%13CC[C@@]%12(C)[C@]%10(C)CC%11)nn9)c(OCc9cn(CCOCCOCCNC(=O)[C@]%10%11CCC(C)(C)C[C@H]%10C%10=CC[C@@H]%12[C@@]%13(C)CC[C@H](O)C(C)(C)[C@@H]%13CC[C@@]%12(C)[C@]%10(C)CC%11)nn9)c8)nn7)c6)nn5)cc(OCc5cn(CCOCCOCCNC(=O)[C@]67CCC(C)(C)C[C@H]6C6=CC[C@@H]8[C@@]9(C)CC[C@H](O)C(C)(C)[C@@H]9CC[C@@]8(C)[C@]6(C)CC7)nn5)c4OCc4cn(CCOCCOCCNC(=O)[C@]56CCC(C)(C)C[C@H]5C5=CC[C@@H]7[C@@]8(C)CC[C@H](O)C(C)(C)[C@@H]8CC[C@@]7(C)[C@]5(C)CC6)nn4)nn3)CC[C@]3(C)C(=CC[C@@H]4[C@@]5(C)CC[C@H](O)C(C)(C)[C@@H]5CC[C@]43C)[C@@H]2C1`, the selectivity ratio in [5] was more than 1.66. Besides, the viability at 48 h, 30 µM in data set [1] stood at 97.2%. Also, the Activity in the data set on Influenza A virus [2] came to 97.28%. Further, the IC50 in the data set with Influenza A virus [9] was 18.1 µM. For the same compound, in [4], the CC50 at 48 h was more than 30 µM.

As to `CCOC(=O)C1=C[C@@H](OC(CC)CC)[C@H](NC(C)=O)[C@@H](N)C1.O=P(O)(O)O` [OSELTAMIVIR PHOSPHATE], the selectivity ratio in data set [5] was more than 55. The viability at 48 h, 30 µM in data set [1] worked out at 100%. The Activity in the data set on Influenza A virus [2] was 89.22%. Besides, the IC50 in the data set with Influenza A virus [7] and with Influenza A virus [8] was more than 100 µM throughout. In data set [4], the CC50 at 48 h is more than 100 µM.
